Measurements taken from patent publication US20250099528A1, “ORAL COMPOSITION” (Toyo Shinyaku Co., Ltd., priority 2023, published 2025).

System: Caco-2 cells
Test: Leucine permeability test using Caco-2 cells
Type: in vitro ADME, Human
Details: Caco-2 insert wells, luminal to basolateral side, culture two hours, L-leucine 0.131 mg/mL, HPLC
Procedure: To assess the action of promoting free amino acid absorption of a dark-green vegetable, leucine permeability was measured by a test using Caco-2 cells. The following materials were used as test substances. • (1) As a dark-green vegetable, crushed powder of young barley grass (containing 43% by weight of dietary fiber; manufactured by TOYO SHINYAKU Co., Ltd.) which was obtained by washing grass harvested before heading, then cutting, drying, and then crushing was used. The crushed powder of young barley grass in an amount of 24 mg was put into a tube, and after adding 1 mL of a buffer, the mixture was vortexed. Then, the supernatant was collected through centrifugation at 15,000×g for five minutes at room temperature. […] When the medium was changed before the addition of the samples, the medium outside the insert wells (the wells at the basolateral side) was replaced with 1000 μl of 10% FBS-DMEM, and the medium inside the insert wells (the wells at the luminal side) was replaced with 350 μl of 10% FBS-DMEM. • (5) The electrical resistance values were measured with Millicell ERS-2, and the wells having a value of 1000Ω or more were used. […] The leucine concentrations of the obtained concentrated liquids were measured with high performance liquid chromatography. The measurement results were applied to the equation below, and thus the leucine permeability was calculated. […]

Leucine Permeability (%): 1.32%
Compound: CC(C)C[C@H](N)C(=O)O [Comparative Example 1, L-leucine]
